According to the supplement of paper PMC10307832:

How the values were obtained:
Experiment in all cases: relative viability (nuclei count vs DMSO), 5 days (fraction); higher = more cells survive
Erlotinib + Palbociclib = compound: C#Cc1cccc(Nc2ncnc3cc(OCCOC)c(OCCOC)cc23)c1 [Erlotinib] + CC(=O)c1c(C)c2cnc(Nc3ccc(N4CCNCC4)cn3)nc2n(C2CCCC2)c1=O [Palbociclib] (partner 0.5 µM)
How it was run: (§1)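 Five library-drug doses in √10 steps were combined with a fixed anchor-drug dose, or a single drug was given alone, by pin tool to lung cancer cell lines in 1536-well plates the day after seeding. Nuclei were stained and counted after 5 days. Relative viability is the nuclei count in treated wells over that in vehicle wells, taken as the median of duplicate plates.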

Erlotinib + Pictilisib = compound: C#Cc1cccc(Nc2ncnc3cc(OCCOC)c(OCCOC)cc23)c1 [Erlotinib] + CS(=O)(=O)N1CCN(Cc2cc3nc(-c4cccc5[nH]ncc45)nc(N4CCOCC4)c3s2)CC1 [Pictilisib] (partner 1 µM)
How it was run: as §1

Erlotinib + Tozasertib = compound: C#Cc1cccc(Nc2ncnc3cc(OCCOC)c(OCCOC)cc23)c1 [Erlotinib] + Cc1cc(Nc2cc(N3CCN(C)CC3)nc(Sc3ccc(NC(=O)C4CC4)cc3)n2)n[nH]1 [Tozasertib] (partner 0.1 µM)
How it was run: as §1

AT9283 + Decitabine = compound: O=C(Nc1c[nH]nc1-c1nc2ccc(CN3CCOCC3)cc2[nH]1)NC1CC1 [AT9283] + Nc1ncn([C@H]2C[C@H](O)[C@@H](CO)O2)c(=O)n1 [Decitabine] (partner 2 µM)
How it was run: as §1

AT9283 + Olaparib = compound: O=C(Nc1c[nH]nc1-c1nc2ccc(CN3CCOCC3)cc2[nH]1)NC1CC1 [AT9283] + O=C(c1cc(Cc2n[nH]c(=O)c3ccccc23)ccc1F)N1CCN(C(=O)C2CC2)CC1 [Olaparib] (partner 8 µM)
How it was run: as §1

Row | Cell Line | relative viability (Erlotinib + Palbociclib; first compound 0.02 µM) | relative viability (Erlotinib + Palbociclib; first compound 0.2 µM) | relative viability (Erlotinib + Palbociclib; first compound 0.6325 µM) | relative viability (Erlotinib + Palbociclib; first compound 2 µM) | relative viability (Erlotinib + Pictilisib; first compound 0.02 µM) | relative viability (Erlotinib + Pictilisib; first compound 0.6325 µM) | relative viability (Erlotinib + Pictilisib; first compound 2 µM) | relative viability (Erlotinib + Tozasertib; first compound 0.02 µM) | relative viability (Erlotinib + Tozasertib; first compound 0.2 µM) | relative viability (Erlotinib + Tozasertib; first compound 0.6325 µM) | relative viability (Erlotinib + Tozasertib; first compound 2 µM) | relative viability (AT9283 + Decitabine; first compound 0.003 µM) | relative viability (AT9283 + Decitabine; first compound 0.03 µM) | relative viability (AT9283 + Decitabine; first compound 0.09487 µM) | relative viability (AT9283 + Decitabine; first compound 0.3 µM) | relative viability (AT9283 + Olaparib; first compound 0.003 µM) | relative viability (AT9283 + Olaparib; first compound 0.03 µM) | relative viability (AT9283 + Olaparib; first compound 0.09487 µM) | relative viability (AT9283 + Olaparib; first compound 0.3 µM) | relative viability (Erlotinib + Pictilisib; first compound 0.2 µM)
1 | NCI-H1650 | 0.265 | 0.287 | 0.309 | 0.245 | 0.483 | 0.578 | 0.47 | 0.465 | 0.332 | 0.305 | 0.217 | 0.565 | 0.499 | 0.387 | 0.238 | 0.759 | 0.808 | 0.693 | 0.48 | 
2 | NCI-H1651 | 0.527 | 0.474 | 0.514 | 0.478 | 0.511 | 0.662 | 0.5 | 0.671 |  | 0.606 | 0.282 | 0.371 | 0.516 | 0.428 | 0.318 | 0.176 | 0.189 | 0.209 | 0.243 | 0.628
3 | NCI-H1666 | 0.624 | 0.613 | 0.631 | 0.74 | 0.466 | 0.317 | 0.267 | 0.551 | 0.523 | 0.498 | 0.482 | 0.6 | 0.589 | 0.669 | 0.534 | 0.739 | 0.724 | 0.608 | 0.533 | 0.329
4 | NCI-H1734 | 0.346 | 0.342 | 0.372 | 0.41 | 0.494 | 0.542 |  | 0.259 | 0.238 | 0.273 | 0.273 | 0.54 | 0.324 | 0.261 | 0.254 | 0.643 | 0.414 | 0.293 | 0.259 | 0.474
5 | NCI-H1755 | 0.454 | 0.449 | 0.446 | 0.458 | 0.422 | 0.416 | 0.374 |  | 0.561 | 0.505 | 0.422 | 0.712 | 0.803 | 0.67 | 0.527 | 0.987 | 0.859 | 0.53 | 0.45 | 0.456
6 | NCI-H1793 | 0.252 | 0.241 | 0.247 | 0.241 | 0.272 | 0.306 | 0.302 | 0.307 | 0.258 | 0.235 | 0.161 | 0.498 | 0.469 | 0.283 | 0.266 | 0.986 | 0.841 | 0.451 | 0.257 | 0.386
7 | NCI-H1915 | 0.522 | 0.526 | 0.599 | 0.502 |  | 1.07 | 0.948 | 0.45 | 0.405 | 0.408 | 0.262 | 0.247 | 0.26 | 0.209 | 0.168 | 0.266 | 0.228 | 0.17 | 0.143 | 
8 | NCI-H1944 | 0.331 | 0.242 | 0.264 | 0.231 | 0.357 | 0.346 | 0.33 | 0.249 | 0.21 | 0.227 | 0.174 | 0.415 | 0.388 | 0.212 | 0.267 | 0.401 | 0.361 | 0.205 | 0.206 | 0.304
9 | NCI-H1975 | 0.539 | 0.611 | 0.639 | 0.472 | 0.287 | 0.307 | 0.255 | 0.773 | 0.549 | 0.251 | 0.142 | 0.403 | 0.432 | 0.398 | 0.34 | 0.731 | 0.723 | 0.783 | 0.647 | 0.253
10 | NCI-H1993 | 0.585 | 0.561 | 0.503 | 0.514 | 0.807 | 0.946 | 0.901 | 0.574 | 0.518 | 0.569 | 0.591 | 0.596 | 0.453 | 0.442 | 0.456 | 1.07 | 1 | 0.552 | 0.391 | 0.745
11 | NCI-H2009 | 0.173 | 0.205 | 0.235 | 0.203 | 0.836 | 0.943 | 0.732 | 0.751 | 0.746 | 0.834 | 0.62 | 0.378 | 0.358 | 0.225 | 0.222 | 0.716 | 0.636 | 0.458 | 0.0682 | 0.763
12 | NCI-H2023 | 0.393 | 0.351 | 0.297 | 0.225 | 0.3 | 0.218 | 0.226 | 0.365 | 0.241 | 0.165 | 0.188 | 0.202 | 0.202 | 0.127 | 0.0969 | 0.511 | 0.409 | 0.21 | 0.0856 | 
13 | NCI-H2085 | 0.465 | 0.44 | 0.379 | 0.381 | 0.459 | 0.513 | 0.358 | 0.808 | 0.637 | 0.598 | 0.404 | 0.615 | 0.452 | 0.419 | 0.378 | 0.834 | 0.772 | 0.629 | 0.292 | 0.46
14 | NCI-H2087 | 0.238 | 0.246 | 0.212 | 0.226 | 0.842 | 0.932 |  | 0.259 | 0.279 | 0.191 | 0.132 | 0.238 | 0.214 | 0.182 | 0.0988 | 0.71 | 0.416 | 0.194 | 0.154 | 0.844
15 | NCI-H2126 | 0.381 | 0.364 | 0.349 | 0.367 | 0.505 | 0.4 | 0.379 | 0.841 | 0.691 | 0.674 | 0.481 | 0.589 | 0.625 | 0.439 | 0.303 | 0.978 | 0.938 | 0.698 | 0.364 | 0.396
16 | NCI-H2170 | 0.374 | 0.36 | 0.379 | 0.282 | 0.316 | 0.236 | 0.176 | 0.811 | 0.73 | 0.607 | 0.324 | 0.466 | 0.366 | 0.228 | 0.156 | 0.613 | 0.385 | 0.14 | 0.146 | 0.282
